“And” between values parts separate entries of the source, which are not always exact repeats. Identical values can stand only once.
Experiments:
[1] = tested on: mice; conditions: transtympanal injection of 0.1%, 1%, and 10% NCT, mice [Ref. 19]; cited from earlier work
[2] = tested on: methicillin-resistant Staphylococcus aureus; test: Bactericidal activity of NCT without and with heparin (CFU counts); type: cell-based
[3] = molecular target: T1, Fibrinogen (Homo sapiens, UniProt P02671+P02675+P02679); test: Fibrinogen, Multifibren U test; type: biochemical; conditions: for Fibrinogen, mean value: mean of 11 subjects
T1 construct: from tissue; host or cells: citrated whole blood of volunteers
T1 sequence (P02671 20-629 limits assumed): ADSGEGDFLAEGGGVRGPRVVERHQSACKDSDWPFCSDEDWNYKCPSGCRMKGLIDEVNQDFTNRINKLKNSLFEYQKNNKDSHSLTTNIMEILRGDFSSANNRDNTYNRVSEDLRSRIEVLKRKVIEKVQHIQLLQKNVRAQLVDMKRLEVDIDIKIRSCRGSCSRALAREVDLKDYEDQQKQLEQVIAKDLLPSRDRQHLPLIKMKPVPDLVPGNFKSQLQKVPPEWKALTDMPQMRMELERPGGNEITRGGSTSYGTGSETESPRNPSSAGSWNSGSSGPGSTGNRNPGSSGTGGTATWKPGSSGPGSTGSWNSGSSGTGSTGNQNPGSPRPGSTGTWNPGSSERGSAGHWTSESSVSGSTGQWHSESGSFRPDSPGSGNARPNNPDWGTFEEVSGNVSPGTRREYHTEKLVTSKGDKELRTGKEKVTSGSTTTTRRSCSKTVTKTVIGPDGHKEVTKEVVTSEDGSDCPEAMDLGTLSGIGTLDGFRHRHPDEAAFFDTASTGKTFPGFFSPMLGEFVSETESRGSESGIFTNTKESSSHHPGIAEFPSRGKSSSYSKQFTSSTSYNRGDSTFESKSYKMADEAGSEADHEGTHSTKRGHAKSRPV
T1 sequence (P02675 31-491): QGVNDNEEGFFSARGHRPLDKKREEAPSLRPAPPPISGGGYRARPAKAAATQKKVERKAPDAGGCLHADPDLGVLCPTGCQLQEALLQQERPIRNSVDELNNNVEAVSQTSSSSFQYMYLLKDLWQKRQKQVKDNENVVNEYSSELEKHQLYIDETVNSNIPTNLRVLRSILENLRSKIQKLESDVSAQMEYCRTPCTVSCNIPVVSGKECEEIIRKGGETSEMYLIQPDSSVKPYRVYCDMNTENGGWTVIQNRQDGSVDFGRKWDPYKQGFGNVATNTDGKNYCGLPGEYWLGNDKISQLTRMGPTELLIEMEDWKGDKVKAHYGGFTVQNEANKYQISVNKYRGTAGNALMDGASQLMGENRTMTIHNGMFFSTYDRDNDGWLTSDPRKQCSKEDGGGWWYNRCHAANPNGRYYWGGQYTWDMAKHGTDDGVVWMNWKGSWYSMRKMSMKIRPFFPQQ
T1 sequence (P02679 27-453): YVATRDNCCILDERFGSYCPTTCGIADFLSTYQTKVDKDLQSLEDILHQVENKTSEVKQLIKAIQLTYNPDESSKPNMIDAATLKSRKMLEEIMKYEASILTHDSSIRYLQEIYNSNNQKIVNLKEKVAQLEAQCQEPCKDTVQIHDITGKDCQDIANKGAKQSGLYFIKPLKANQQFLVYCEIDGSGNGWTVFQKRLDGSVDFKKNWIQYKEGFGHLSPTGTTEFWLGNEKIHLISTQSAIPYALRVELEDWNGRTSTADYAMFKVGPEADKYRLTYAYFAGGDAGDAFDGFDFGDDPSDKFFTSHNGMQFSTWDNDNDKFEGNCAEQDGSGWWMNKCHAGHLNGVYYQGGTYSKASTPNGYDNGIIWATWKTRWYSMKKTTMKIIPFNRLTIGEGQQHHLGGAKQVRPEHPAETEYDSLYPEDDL
Method: (§1) Whole blood was taken from a single volunteer and enriched with trisodium citrate (0.3 mL of a 0.106 molar solution per 3 mL whole blood) (S-Monovette®, Sarstedt, Nümbrecht, Germany). Portions of 1.8 mL citrate blood were mixed with 0.2 mL NCT in 0.9% saline. The following final (after dilution in blood) NCT concentrations were tested separately: 1% (55 mM); 0.5% (27.5 mM); 0.25% (13.75 mM); 0.1% (5.5 mM); 0.05% (2.75 mM); 0.025% (1.375 mM); and 0.01% (0.55 mM). A control without NCT was performed in parallel. The following commercial coagulation tests were performed according to the prescription of the manufacturer: prothrombin time (PT) was determined using Thromborel® S test (Dade Behring GmbH, Marburg, Germany), activated partial thromboplastin time (aPTT) was determined using Pathromtin* SL test (Dade Behring GmbH, Marburg, Germany); thrombin time (TT) was determined using BC Thrombin Reagent test (Dade Behring GmbH, Marburg, Germany); and fibrinogen was determined using Multifibren* U test (Dade Behring GmbH, Marburg, Germany).
(§2) Whole blood was taken from 11 volunteers and enriched with trisodium citrate (0.3 mL of a 0.106 molar solution per 3 mL whole blood) (S-Monovette®, Sarstedt, Nümbrecht, Germany). Commercial coagulation tests (as described in Example 6) were performed with the following samples: […]

[4] = tested on: Staphylococcus epidermidis; test: Bactericidal activity of NCT without and with heparin (CFU counts); type: cell-based
[5] = tested on: citrate blood; test: Activated partial thromboplastin time (aPTT), Pathromtin SL test; type: biochemical, human; conditions: for aPTT / aPTT (sec): Example 6, single volunteer; for Activated partial thromboplastin time (aPTT) / Activated partial thromboplastin time (aPTT), mean value: Example 7; for Activated partial thromboplastin time (aPTT): individual subjects 1-11; for Activated partial thromboplastin time (aPTT), mean value: mean of 11 subjects
Method: Whole blood was taken from volunteers and enriched with trisodium citrate (0.3 mL of a 0.106 molar solution per 3 mL whole blood) (S-Monovette®, Sarstedt, Nümbrecht, Germany). Routine coagulation tests were performed on the following samples:
The following commercial coagulation tests were performed according to the prescription of the manufacturer: prothrombin time (PT) was determined using Thromborel® S test (Dade Behring GmbH, Marburg, Germany); activated partial thromboplastin time (aPTT) was determined using Pathromtin* SL test (Dade Behring GmbH, Marburg, Germany); and thrombin time (TT) was determined using BC Thrombin Reagent test (Dade Behring GmbH, Marburg, Germany).
as §1, §2

[6] = 0.1% NCT, virtually identical experiments
[7] = 1% NCT, 125 IE/mL heparin, pH 7.1, 37° C., 1-10 min

## O=S(=O)(O)CCNCl [NCT, N-chlorotaurine]
[1]
  damage of the inner ear: did not cause damage of the inner ear
[2]; [6]
  influence of heparin on the killing of bacteria: no statistically significant influence of heparin on the killing of bacteria
[2]; [7]
  killing activity of NCT with vs without heparin: no difference in the killing activity
[3]; Example 6, single volunteer, 0.01% (0.55 mM) NCT final
  Fibrinogen: 281.4
[3]; Example 6, single volunteer, 0.025% (1.375 mM) NCT final
  Fibrinogen: 199.4
[3]; Example 6, single volunteer, 0.05% (2.75 mM) NCT final
  Fibrinogen: not detectable
[3]; Example 6, single volunteer, 0.1% (5.5 mM) NCT final
  Fibrinogen: not detectable
[3]; Example 6, single volunteer, 0.25% (13.75 mM) NCT final
  Fibrinogen: not detectable
[3]; Example 6, single volunteer, 0.5% (27.5 mM) NCT final
  Fibrinogen: not detectable
[3]; Example 6, single volunteer, 1% (55 mM) NCT final
  Fibrinogen: not detectable
[3]; Example 7, 0.01% NCT, individual subjects 1-11
  Fibrinogen: 170 mg/dL and 112 mg/dL and 240 mg/dL and 87 mg/dL and 194 mg/dL and 178 mg/dL and 226 mg/dL and 237 mg/dL and 224 mg/dL and 230 mg/dL and 215 mg/dL
[3]; Example 7, 0.01% NCT
  Fibrinogen, mean value: 192.1 mg/dL
[3]; Example 7, 0.025% NCT, individual subjects 1-11
  Fibrinogen: 40 mg/dL
[3]; Example 7, 0.025% NCT
  Fibrinogen, mean value: 40.0 mg/dL
[4]; [6]
  influence of heparin on the killing of bacteria: no statistically significant influence of heparin on the killing of bacteria
[4]; [7]
  killing activity of NCT with vs without heparin: no difference in the killing activity
[5]; Example 5, 1% NCT final concentration in citrate blood
  activated partial thromboplastin time: above the test limits
[5]; 0.01% (0.55 mM) NCT final
  aPTT: 30.6 s
[5]; 0.025% (1.375 mM) NCT final
  aPTT: 37.7 s
[5]; 0.05% (2.75 mM) NCT final
  aPTT: 71.3 s
[5]; 0.1% (5.5 mM) NCT final
  aPTT: 371.4 s
[5]; 0.25% (13.75 mM) NCT final
  aPTT (sec): >limit
[5]; 0.5% (27.5 mM) NCT final
  aPTT (sec): >limit
[5]; 1% (55 mM) NCT final
  aPTT (sec): >limit
[5]; 0.01% NCT
  Activated partial thromboplastin time (aPTT): 39 sec (2×) and 41 sec and 32 sec and 47 sec and 37 sec (2×) and 35 sec and 40 sec and 36 sec and 31 sec
  Activated partial thromboplastin time (aPTT), mean value: 37.6 s
[5]; 0.025% NCT
  Activated partial thromboplastin time (aPTT): 93 sec and 113 sec and 49 sec and 238 sec and 142 sec and 129 sec and 91 sec (2×) and 167 sec and 70 sec and 71 sec
  Activated partial thromboplastin time (aPTT), mean value: 114.0 s

Reference: US20110091570A1, “Compositions and Devices for Antisepsis and Anticoagulation” (priority 2008, published 2011)
